# From patent publication US20110269812A1, “NOVEL BENZYLIDENE-INDOLINONE AND THEIR MEDICAL AND DIAGNOSTIC USES” (Agency for Science, Technology and Research, priority 2008, published 2011)
# pIC50: −log10 of the molar value. Where two headings read alike, the source gives them in different places.
# Assays:
# caspase-3 = assay: Caspase-3 activity assay in HuH7 and HepG2; assay type: cell-based, human; conditions: HuH7 and HepG2, 24 h, Ac-DEVD-AMC hydrolysis
# Description: HuH7 (darker bar) and HepG2 (lighter bar) cells treated as described in FIG. 4 were harvested for caspase-3 assay performed by the catalytic hydrolysis of fluorogenic Ac-DEVD-AMC. Results were expressed as a normalized RFU per μg lysate per h of incubation with the AMC substrate (n=3).
# Cells were subjected to Compound 47 treatment for 24 h prior to harvesting. Caspase-3 activities were determined by as previously described (Ho HK, Pok S, Streit S, Ruhe J E, Hart S, Lim K S, et al. Fibroblast growth factor receptor 4 regulates proliferation, anti-apoptosis and alpha-fetoprotein secretion during hepatocellular carcinoma progression and represents a potential target for therapeutic intervention. J Hepatol 2009 January; 50(1):118-127). Data were expressed as RFU/μg lysate/h incubation and error bars in terms of SD with n=3.
# Next, the mechanism of Compound 47's anti-proliferative effects was investigated. […] However, there was little effect on the mitochondrial apoptotic players Bax and BCL-xL.
# Hs817T = assay: Cell Titer-Glo viability, Hs817T; assay type: cell-based, human; conditions: 5 μM
# Description: (§1) The efficacy of compound 47 against HCC proliferation was tested on a wider panel of HCC cell lines: Hep3B ([…]), Hs817T (▪), PLC/PRF/5 (▴) and SK-Hep 1 (▾), as determined by Cell Titer-Glo assay.
# (§2) Cells were plated at 5000-7000 cells/per well and incubated for 24 h before treatment. […] Cell Titer-Glo (Promega, Madison, Wis.) assay was performed according to manufacturer's instruction with luminescence detected on SpectraMax M5 (Molecular Devices, Sunnyvale, Calif.). Data was expressed as percentage of viability vs. vehicle-treated controls.
# (§3) Accordingly, Compound 47 was screened against a larger panel of 4 additional HCC cell lines.
# EGFR = target: T1, EGFR (Homo sapiens, UniProt P00533); assay type: cell-based; conditions: 24 h, untreated 0.15
# T1 construct: Cells treated similarly were immunoprecipitated with anti-EGFR, anti-EphA2 and anti-Tyro3; endogenous in cells; host or cells: HuH7
# Description: (§4) Kinase phosphorylation changes were determined with human phospho-RTK array.
# (§5) Cells harvesting, hybridization with RTK array and incubation with anti-phosphotyrosine were performed according to manufacturer's instruction. Imaging and quantification of the spots intensities was with Fujifilm LAS-3000 (Tokyo, Japan). Average signal of the duplicate spots for each RTK was determined.
# IGF-1R = target: T2, IGF-1R (Homo sapiens, UniProt P08069); assay: Human phospho-RTK array, HuH7: IGF-1R; assay type: cell-based; conditions: 24 h, untreated 0.19
# T2 construct: we examined the constitutively phosphorylated IGF-1R, EphA2 and Tyro3; endogenous in cells; host or cells: HuH7
# Description: as §4, §5
# SK-Hep1 = assay: Cell Titer-Glo viability, SK-Hep1; assay type: cell-based; conditions: Homo sapiens
# Description: as §1, §2, §3
# Met = target: T3, Met (Homo sapiens, UniProt P08581); assay: Human phospho-RTK array, HuH7: Met; assay type: cell-based; conditions: 24 h, untreated 0.05
# T3 construct: endogenous in cells; host or cells: HuH7
# Description: as §4, §5
# Tyro3 = target: T4, Tyro3 (Homo sapiens, UniProt Q06418); assay: Human phospho-RTK array, HuH7: Tyro-3; assay type: cell-based; conditions: 24 h, untreated 0.15
# T4 construct: we examined the constitutively phosphorylated IGF-1R, EphA2 and Tyro3; endogenous in cells; host or cells: HuH7
# T4 sequence (Q06418 41-890): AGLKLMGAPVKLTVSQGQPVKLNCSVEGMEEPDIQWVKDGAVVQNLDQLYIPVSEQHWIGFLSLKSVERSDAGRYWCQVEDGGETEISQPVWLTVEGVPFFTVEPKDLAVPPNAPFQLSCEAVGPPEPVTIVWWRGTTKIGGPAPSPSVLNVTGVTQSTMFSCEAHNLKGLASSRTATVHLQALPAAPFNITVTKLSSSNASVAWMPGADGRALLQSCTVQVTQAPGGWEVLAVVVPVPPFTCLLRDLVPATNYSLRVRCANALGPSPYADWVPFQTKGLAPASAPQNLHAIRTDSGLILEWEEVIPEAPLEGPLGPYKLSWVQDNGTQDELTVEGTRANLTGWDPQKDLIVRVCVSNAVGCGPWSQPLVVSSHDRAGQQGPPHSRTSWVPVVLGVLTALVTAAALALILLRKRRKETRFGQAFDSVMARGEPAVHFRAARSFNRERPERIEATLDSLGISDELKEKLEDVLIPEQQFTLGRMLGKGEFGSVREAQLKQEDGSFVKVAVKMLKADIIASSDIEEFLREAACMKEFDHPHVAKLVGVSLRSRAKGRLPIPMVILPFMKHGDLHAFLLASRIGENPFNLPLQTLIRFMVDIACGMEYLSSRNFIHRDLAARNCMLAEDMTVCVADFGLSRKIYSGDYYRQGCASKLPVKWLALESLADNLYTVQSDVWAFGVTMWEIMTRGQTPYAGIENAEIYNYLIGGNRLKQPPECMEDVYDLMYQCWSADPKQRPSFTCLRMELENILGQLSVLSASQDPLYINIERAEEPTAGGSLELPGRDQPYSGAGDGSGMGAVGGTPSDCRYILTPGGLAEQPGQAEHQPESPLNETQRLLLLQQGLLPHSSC
# Description: as §4, §5
# AFP = AFP transcription in HuH7 by quantitative real-time PCR; assay type: cell-based, human; conditions: HuH7, 10 μM, 24 h, normalized against 18S mRNA
# EphA2 = target: T5, EphA2 (Homo sapiens, UniProt P29317); assay: Human phospho-RTK array, HuH7: EphA2; assay type: cell-based; conditions: 24 h, untreated 0.07
# T5 construct: we examined the constitutively phosphorylated IGF-1R, EphA2 and Tyro3; endogenous in cells; host or cells: HuH7
# Description: as §4, §5
# T1 sequence (P00533 25-1210): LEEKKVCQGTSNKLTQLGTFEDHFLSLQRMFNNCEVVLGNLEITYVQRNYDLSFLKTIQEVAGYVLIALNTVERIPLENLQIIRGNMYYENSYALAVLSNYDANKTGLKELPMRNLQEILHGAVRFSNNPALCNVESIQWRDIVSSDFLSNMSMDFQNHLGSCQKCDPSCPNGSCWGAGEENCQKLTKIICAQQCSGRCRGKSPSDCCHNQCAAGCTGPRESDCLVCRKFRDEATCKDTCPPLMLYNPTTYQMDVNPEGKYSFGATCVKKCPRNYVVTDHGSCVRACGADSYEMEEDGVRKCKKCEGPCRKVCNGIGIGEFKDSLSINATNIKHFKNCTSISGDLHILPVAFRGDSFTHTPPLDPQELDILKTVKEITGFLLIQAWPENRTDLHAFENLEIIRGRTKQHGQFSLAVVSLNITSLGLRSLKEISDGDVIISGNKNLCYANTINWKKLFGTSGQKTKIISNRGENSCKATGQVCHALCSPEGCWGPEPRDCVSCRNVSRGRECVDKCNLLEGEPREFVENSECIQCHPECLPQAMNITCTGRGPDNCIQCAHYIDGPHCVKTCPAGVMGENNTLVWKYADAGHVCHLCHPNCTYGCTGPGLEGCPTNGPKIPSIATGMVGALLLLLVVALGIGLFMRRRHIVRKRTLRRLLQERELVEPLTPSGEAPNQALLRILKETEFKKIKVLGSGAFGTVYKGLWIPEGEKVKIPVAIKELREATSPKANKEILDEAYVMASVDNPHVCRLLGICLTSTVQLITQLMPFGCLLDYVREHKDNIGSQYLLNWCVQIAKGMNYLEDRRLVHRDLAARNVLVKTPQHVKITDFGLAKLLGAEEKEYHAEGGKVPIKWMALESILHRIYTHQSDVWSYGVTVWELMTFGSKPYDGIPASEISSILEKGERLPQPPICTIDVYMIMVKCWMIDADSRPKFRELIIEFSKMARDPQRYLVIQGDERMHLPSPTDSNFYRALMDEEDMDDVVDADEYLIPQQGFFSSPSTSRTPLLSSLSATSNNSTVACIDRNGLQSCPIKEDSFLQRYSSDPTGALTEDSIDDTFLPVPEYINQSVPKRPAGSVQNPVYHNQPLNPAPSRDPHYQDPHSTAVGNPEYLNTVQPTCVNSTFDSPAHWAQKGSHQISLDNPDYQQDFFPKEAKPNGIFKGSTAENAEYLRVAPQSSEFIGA
# T5 sequence (P29317 24-976): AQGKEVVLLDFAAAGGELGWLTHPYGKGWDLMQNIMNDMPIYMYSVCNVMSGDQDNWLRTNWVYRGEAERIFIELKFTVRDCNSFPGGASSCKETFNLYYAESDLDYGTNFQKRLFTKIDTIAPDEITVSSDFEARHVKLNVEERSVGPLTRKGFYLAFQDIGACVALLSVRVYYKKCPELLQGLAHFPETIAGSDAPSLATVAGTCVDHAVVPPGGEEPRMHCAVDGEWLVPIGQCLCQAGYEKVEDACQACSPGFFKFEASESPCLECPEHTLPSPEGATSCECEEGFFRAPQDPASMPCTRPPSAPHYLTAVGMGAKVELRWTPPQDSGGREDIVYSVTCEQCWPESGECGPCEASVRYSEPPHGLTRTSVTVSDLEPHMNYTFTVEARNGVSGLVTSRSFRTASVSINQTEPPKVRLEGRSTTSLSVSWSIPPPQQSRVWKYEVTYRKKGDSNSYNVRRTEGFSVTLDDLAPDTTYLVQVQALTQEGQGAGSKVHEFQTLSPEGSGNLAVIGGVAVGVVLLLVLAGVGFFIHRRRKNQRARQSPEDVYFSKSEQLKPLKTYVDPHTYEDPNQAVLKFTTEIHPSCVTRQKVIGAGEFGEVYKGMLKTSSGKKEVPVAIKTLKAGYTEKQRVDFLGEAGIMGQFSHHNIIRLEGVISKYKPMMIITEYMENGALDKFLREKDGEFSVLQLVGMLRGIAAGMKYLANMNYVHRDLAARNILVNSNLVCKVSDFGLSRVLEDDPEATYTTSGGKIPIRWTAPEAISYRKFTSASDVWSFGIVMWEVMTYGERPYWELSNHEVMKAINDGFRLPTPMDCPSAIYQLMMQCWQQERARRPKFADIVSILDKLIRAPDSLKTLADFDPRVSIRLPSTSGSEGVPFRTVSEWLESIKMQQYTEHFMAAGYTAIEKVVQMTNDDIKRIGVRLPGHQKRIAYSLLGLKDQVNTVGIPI
# T2 sequence (P08069 31-1367): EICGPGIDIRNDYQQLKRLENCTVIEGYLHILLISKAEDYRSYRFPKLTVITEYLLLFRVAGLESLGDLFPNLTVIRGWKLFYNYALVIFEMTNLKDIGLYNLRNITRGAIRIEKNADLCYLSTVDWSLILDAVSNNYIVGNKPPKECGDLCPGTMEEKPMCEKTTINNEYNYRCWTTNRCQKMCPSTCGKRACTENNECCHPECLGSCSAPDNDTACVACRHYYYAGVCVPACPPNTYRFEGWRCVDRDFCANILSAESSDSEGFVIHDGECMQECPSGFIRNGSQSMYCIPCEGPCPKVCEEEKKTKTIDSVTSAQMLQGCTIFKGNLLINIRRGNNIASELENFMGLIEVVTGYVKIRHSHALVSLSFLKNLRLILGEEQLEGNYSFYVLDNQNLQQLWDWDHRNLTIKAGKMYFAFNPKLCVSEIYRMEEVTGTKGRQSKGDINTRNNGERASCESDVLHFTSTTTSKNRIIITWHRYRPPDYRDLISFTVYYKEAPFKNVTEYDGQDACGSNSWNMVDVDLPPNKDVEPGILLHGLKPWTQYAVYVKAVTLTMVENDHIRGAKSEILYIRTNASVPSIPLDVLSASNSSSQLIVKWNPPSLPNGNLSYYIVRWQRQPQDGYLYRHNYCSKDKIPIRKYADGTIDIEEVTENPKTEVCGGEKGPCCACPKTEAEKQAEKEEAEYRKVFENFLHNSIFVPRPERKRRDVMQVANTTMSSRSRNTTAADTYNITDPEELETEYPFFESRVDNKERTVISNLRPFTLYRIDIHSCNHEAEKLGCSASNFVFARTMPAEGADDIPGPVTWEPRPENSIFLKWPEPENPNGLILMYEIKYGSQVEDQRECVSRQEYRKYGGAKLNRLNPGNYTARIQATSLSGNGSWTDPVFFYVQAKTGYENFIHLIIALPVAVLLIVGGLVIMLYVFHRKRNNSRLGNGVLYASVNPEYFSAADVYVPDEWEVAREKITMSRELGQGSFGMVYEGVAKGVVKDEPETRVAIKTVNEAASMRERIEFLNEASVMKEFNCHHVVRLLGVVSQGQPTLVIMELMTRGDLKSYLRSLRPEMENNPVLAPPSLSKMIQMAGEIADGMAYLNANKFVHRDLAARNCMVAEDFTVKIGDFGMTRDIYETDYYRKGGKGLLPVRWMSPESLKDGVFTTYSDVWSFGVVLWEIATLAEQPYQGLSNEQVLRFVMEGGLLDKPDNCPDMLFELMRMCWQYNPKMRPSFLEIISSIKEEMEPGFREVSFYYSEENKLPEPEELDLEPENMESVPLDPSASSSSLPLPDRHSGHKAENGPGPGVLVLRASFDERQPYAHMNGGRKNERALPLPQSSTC
# T3 sequence (P08581 25-1390): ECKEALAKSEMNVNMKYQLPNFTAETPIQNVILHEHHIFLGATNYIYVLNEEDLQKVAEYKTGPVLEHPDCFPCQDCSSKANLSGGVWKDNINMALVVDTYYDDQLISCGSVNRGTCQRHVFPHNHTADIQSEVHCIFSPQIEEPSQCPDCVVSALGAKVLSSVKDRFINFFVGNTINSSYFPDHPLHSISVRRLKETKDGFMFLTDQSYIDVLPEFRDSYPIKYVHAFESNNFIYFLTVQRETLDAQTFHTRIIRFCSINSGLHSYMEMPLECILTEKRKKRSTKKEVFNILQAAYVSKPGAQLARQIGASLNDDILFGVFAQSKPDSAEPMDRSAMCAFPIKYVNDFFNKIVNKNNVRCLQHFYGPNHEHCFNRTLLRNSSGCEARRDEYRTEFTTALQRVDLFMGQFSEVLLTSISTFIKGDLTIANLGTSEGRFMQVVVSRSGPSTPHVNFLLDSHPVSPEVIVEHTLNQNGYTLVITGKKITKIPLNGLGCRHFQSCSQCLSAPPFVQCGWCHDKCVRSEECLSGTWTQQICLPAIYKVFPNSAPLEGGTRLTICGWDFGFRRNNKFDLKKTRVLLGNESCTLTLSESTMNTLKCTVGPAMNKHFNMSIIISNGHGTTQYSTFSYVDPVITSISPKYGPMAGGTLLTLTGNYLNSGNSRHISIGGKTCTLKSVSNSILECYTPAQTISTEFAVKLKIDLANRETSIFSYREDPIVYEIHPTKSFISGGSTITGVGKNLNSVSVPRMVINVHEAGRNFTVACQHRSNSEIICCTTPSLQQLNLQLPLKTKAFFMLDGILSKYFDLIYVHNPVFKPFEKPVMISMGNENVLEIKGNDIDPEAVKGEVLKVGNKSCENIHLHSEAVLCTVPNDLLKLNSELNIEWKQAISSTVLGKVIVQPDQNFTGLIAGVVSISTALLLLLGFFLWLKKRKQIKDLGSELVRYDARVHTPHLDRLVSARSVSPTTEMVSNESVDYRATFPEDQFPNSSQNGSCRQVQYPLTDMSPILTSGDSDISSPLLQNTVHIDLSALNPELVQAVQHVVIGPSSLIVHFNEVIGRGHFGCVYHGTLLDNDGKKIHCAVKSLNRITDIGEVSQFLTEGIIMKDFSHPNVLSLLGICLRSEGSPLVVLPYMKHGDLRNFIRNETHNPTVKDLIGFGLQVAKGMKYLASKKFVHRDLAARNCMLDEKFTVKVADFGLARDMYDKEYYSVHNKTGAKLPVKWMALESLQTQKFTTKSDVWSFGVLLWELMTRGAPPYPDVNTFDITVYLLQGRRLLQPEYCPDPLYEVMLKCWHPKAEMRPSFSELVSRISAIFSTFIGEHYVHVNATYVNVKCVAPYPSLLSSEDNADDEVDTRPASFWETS
smiles,measurement,setting,value
"O=C1Nc2cc(Cl)ccc2/C1=C\c1cccc(C(F)(F)F)c1 [Compound 47, (E)-6-Chloro-3-(3-(trifluoromethyl)benzylidene)indolin-2-one]",caspase-3 activity,caspase-3,activation
same,viability Hs817T,Hs817T,undetectable viability
same,EGFR Phosphorylation,"EGFR; serum starved HuH7, 1 μM",0.19 Arbitrary units
same,EGFR Phosphorylation,"EGFR; serum starved HuH7, 5 μM",0.44 Arbitrary units
same,EGFR Phosphorylation,"EGFR; serum starved HuH7, 10 μM",0.53 Arbitrary units
same,IGF-1R Phosphorylation,"IGF-1R; serum starved HuH7, 1 μM",0.22 Arbitrary units
same,IGF-1R Phosphorylation,"IGF-1R; serum starved HuH7, 5 μM",0.13 Arbitrary units
same,IGF-1R Phosphorylation,"IGF-1R; serum starved HuH7, 10 μM",0.07 Arbitrary units
same,pIC50,SK-Hep1,< 5.00
same,Met Phosphorylation,"Met; serum starved HuH7, 1 μM",0.08 Arbitrary units
same,Met Phosphorylation,"Met; serum starved HuH7, 5 μM",0.05 Arbitrary units
same,Met Phosphorylation,"Met; serum starved HuH7, 10 μM",0.02 Arbitrary units
same,Tyro-3 Phosphorylation,"Tyro3; serum starved HuH7, 1 μM",0.10 Arbitrary units
same,Tyro-3 Phosphorylation,"Tyro3; serum starved HuH7, 5 μM",0.11 Arbitrary units
same,Tyro-3 Phosphorylation,"Tyro3; serum starved HuH7, 10 μM",0.07 Arbitrary units
same,AFP transcript vs untreated controls,AFP,significantly repressed to one-third
same,EphA2 Phosphorylation,"EphA2; serum starved HuH7, 1 μM",0.09 Arbitrary units
same,EphA2 Phosphorylation,"EphA2; serum starved HuH7, 5 μM",0.05 Arbitrary units
same,EphA2 Phosphorylation,"EphA2; serum starved HuH7, 10 μM",0.02 Arbitrary units
